Assay results as given in US20180049996A1, “THERAPEUTIC AGENT FOR CHRONIC RESPIRATORY DISEASE AND COMPOSITION FOR INHIBITING CARDIAC FIBROSIS” (NIPPON HYPOX LABORATORIES INCORPORATED, priority 2015, published 2018).

Legend:
[1] = tested on: Creatine phosphokinase (CPK); assay: Creatine phosphokinase (CPK) value in blood, myocardial disorder induced by doxorubicin; type: in vivo, female SD rats; settings: Test group 2: doxorubicin + HTHQ 50 mg/kg; day 14; p<0.05
Description: Doxorubicin is used to produce disease-model animals of cardiomyopathy. The doxorubicin and 2,3,5-trimethylhydroquinone-1-hexyl ether (HTHQ) as the hydroquinone derivative represented by the general formula (1) described above of the present invention were simultaneously administered to female SD rats of 4 week old after birth to examine the effect of the action. The test groups consisted of the control group to which sterile saline was administered; test group 1 to which doxorubicin (13 mg/kg body weight) alone was administered; test group 2 to which doxorubicin (13 mg/kg body weight) and HTHQ (50 mg/kg body weight) were administered in combination; and test group 3 to which doxorubicin (13 mg/kg body weight), HTHQ (50 mg/kg body weight) and recombinant human erythropoietin (400 IU/kg body weight) were administered in combination. The recombinant human erythropoietin (rHuEPO) is mainly used in the treatment of renal anemia etc., and has the effect to protect myocardium. The test group 3 is used to confirm the presence or absence of the inhibitory effect brought about by combining HTHQ and rHuEPO on myocardial disorder.
Doxorubicin was orally administered in a single dose to the rats in test groups 1 to 3. […]

[2] = tested on: Pulmonary Fibrosis Induced by Bleomycin; assay: Histopathologic examination of lungs, pulmonary fibrosis induced by bleomycin; type: in vivo, male SD rats; settings: for Severity score: Alveolar space, Bleeding / Severity score: Alveolar space, Macrophage accumulation / Severity score: Alveolar space, Protein exudation / Severity score: Alveolar wall, Fibroblast accumulation / Severity score: Alveolar wall, Fibrosis of interstitial tissue / Severity score: Alveolar wall, Interstitial edema / Severity score: Alveolar wall, Mononuclear cell infiltration / Severity score: Circumvascular region, Perivascular edema / Severity score: Circumvascular region, Plasma cell infiltration / Severity score: Peribronchial and peribronchiolar regions, Fibrosis of interstitial tissue / Severity score: Peribronchial and peribronchiolar regions, Lymphoid follicle hyperplasia / Severity score: Type II alveolar epithelial cell, Adenomatous hyperplasia / Severity score: Type II alveolar epithelial cell, Atypia and dysplasia: day 20 after bleomycin
Description: Bleomycin is used to produce disease-model animals of interstitial pneumonia. The bleomycin and 2,3,5-trimethylhydroquinone-1-hexyl ether (HTHQ) as the hydroquinone derivative represented by the general formula (1) described above of the present invention were simultaneously administered to male SD rats of 10 week old after birth to examine the effect of the action. The test groups consisted of the control group to which sterile saline was administered; test group 1 to which bleomycin (7.5 mg/kg body weight) alone was administered; test group 2 to which bleomycin (7.5 mg/kg body weight) and HTHQ (50 mg/kg body weight/day) were administered in combination; and test group 3 to which bleomycin (7.5 mg/kg body weight) and HTHQ (200 mg/kg body weight/day) were administered in combination.
In test groups 1 to 3, bleomycin was orally administered in a single dose. In test groups 2 and 3, 2,3,5-trimethylhydroquinone-1-hexyl ether (HTHQ) was daily orally administered for 10 or 20 days starting from 24 h after the administration of bleomycin. In test group 1, olive oil, which was used as a solvent of HTHQ, was daily orally administered at 10 mL/kg/day starting from 24 h after the administration of bleomycin. The number of animals in each group was 16. 8 animals of each group were sacrificed on days 10 and 20 after the administration of bleomycin and measurement of body weight, lung autopsy, histopathologic examination of lungs and bronchoalveolar lavage examination were conducted.
The main lung lesions observed in the rats in test group 1 (the bleomycin-single administration group) on day 10 after the administration were the peribronchial and peribronchiola enlargement of alveoli, the hyperplasia of the alveolar wall, the infiltration of monocytes and lymphocytes in alveolar walls and interstitial tissue, and the exudation of alveolar macrophage into alveolar spaces. These lesions were alleviated in rats in test groups 2 and 3 (the HTHQ-administered groups) compared to the tissue in test group 1.
The result of the histopathologic examination of lungs of the control group and the test groups on day 20 after the administration of bleomycin is shown in Table 1 below. “−” indicates “not found”, “+” indicates “mild”, “++” indicates “moderate”, and “+++” indicates “severe” in severity scores. In test group 1 (the bleomycin-single administration group), the hyperplasia and fibrosis of peribronchial and adjacent alveolar walls became remarkable compared to the tissue on day 10 after the administration and the morphology of alveolus almost disappeared due to the infiltration of lymphocytes and neutrophils. The alveolar macrophages infiltrated within alveolar spaces were buried in surrounding tissues.

[3] = Test group 2: bleomycin 7.5 mg/kg + HTHQ 50 mg/kg/day oral
[4] = Test group 3: bleomycin 7.5 mg/kg + HTHQ 200 mg/kg/day oral

CCCCCCOc1cc(C)c(O)c(C)c1C [HTHQ, 2,3,5-trimethylhydroquinone-1-hexyl ether]
creatine phosphokinase (CPK) value [1]: significantly lower compared to that of test group 1 | Severity score: Alveolar space, Bleeding [2, 3]: + | Severity score: Alveolar space, Macrophage accumulation [2, 3]: + | Severity score: Alveolar space, Protein exudation [2, 3]: + | Severity score: Alveolar wall, Fibroblast accumulation [2, 3]: ++ | Severity score: Alveolar wall, Fibrosis of interstitial tissue [2, 3]: ++ | Severity score: Alveolar wall, Interstitial edema [2, 3]: + | Severity score: Alveolar wall, Mononuclear cell infiltration [2, 3]: ++ | Severity score: Circumvascular region, Perivascular edema [2, 3]: + | Severity score: Circumvascular region, Plasma cell infiltration [2, 3]: + | Severity score: Peribronchial and peribronchiolar regions, Fibrosis of interstitial tissue [2, 3]: + | Severity score: Peribronchial and peribronchiolar regions, Lymphoid follicle hyperplasia [2, 3]: + | Severity score: Type II alveolar epithelial cell, Adenomatous hyperplasia [2, 3]: ++ | Severity score: Type II alveolar epithelial cell, Atypia and dysplasia [2, 3]: + | Severity score: Alveolar space, Bleeding [2, 4]: − | Severity score: Alveolar space, Macrophage accumulation [2, 4]: + | Severity score: Alveolar space, Protein exudation [2, 4]: ++ | Severity score: Alveolar wall, Fibroblast accumulation [2, 4]: + | Severity score: Alveolar wall, Fibrosis of interstitial tissue [2, 4]: + | Severity score: Alveolar wall, Interstitial edema [2, 4]: + | Severity score: Alveolar wall, Mononuclear cell infiltration [2, 4]: ++ | Severity score: Circumvascular region, Perivascular edema [2, 4]: − | Severity score: Circumvascular region, Plasma cell infiltration [2, 4]: − | Severity score: Peribronchial and peribronchiolar regions, Fibrosis of interstitial tissue [2, 4]: + | Severity score: Peribronchial and peribronchiolar regions, Lymphoid follicle hyperplasia [2, 4]: + | Severity score: Type II alveolar epithelial cell, Adenomatous hyperplasia [2, 4]: + | Severity score: Type II alveolar epithelial cell, Atypia and dysplasia [2, 4]: + | histopathologic lung lesions ([2]; test groups 2 and 3: bleomycin 7.5 mg/kg + HTHQ 50 or 200 mg/kg/day oral, day 10, compared to test group 1): alleviated | degree of histopathologic lung lesions ([2]; test groups 2 and 3: bleomycin 7.5 mg/kg + HTHQ 50 or 200 mg/kg/day oral, day 20, compared to test group 1): milder than test group 1
